Where a SMILES comes first, the peptide text is derived from it. Bridges are numbered along the chain shown (N, C = ends). [ ]: non-standard residue; d: D form. The star is where a group is joined. Hexanoyl(4S-Me) = CC[C@H](C)CCC(=O)*; d(aIle) = CC[C@H](C)[C@@H](N)C(=O)O; d(aThr) = C[C@@H](O)[C@@H](N)C(=O)O; dTic = O=C(O)[C@H]1Cc2ccccc2CN1; Orn = NCCC[C@H](N)C(=O)O; Dhb = C/C=C(\N)C(=O)O
Columns and labels:
Assay type in all cases: cell-based, human
[1] = tested on: A-549; test: SRB colorimetric assay of cell growth and viability, A-549; conditions: A-549, 48 hours exposure
[2] = tested on: K-562; test: SRB colorimetric assay of cell growth and viability, K-562; conditions: K-562, 48 hours exposure
[3] = tested on: SK-MEL-28; test: SRB colorimetric assay of cell growth and viability, SK-MEL-28; conditions: 48 hours exposure, SRB
[4] = tested on: LNCaP; test: SRB colorimetric assay of cell growth and viability, LNCaP; conditions: 48 hours exposure, SRB
Description: The finality of this assay is to interrupt the growth of a “in vitro” tumor cell culture by means a continued exhibition of the cells to the sample to be testing.
This form of the assay employs 96 well cell culture microplates of 9 mm diameter (Faircloth, 1988; Mosmann, 1983). Most of the cell lines are obtained from American Type Culture Collection (ATCC) derived from different human cancer types.
Cells are maintained in RPMI 1640 10% FBS, supplemented with 0.1 g/l penicillin and 0.1 g/l streptomycin sulfate and then incubated at 37° C., 5% CO2 and 98% humidity. For the experiments, cells were harvested from subconfluent cultures using trypsin and resuspended in fresh medium before plating.
Cells are seeded in 96 well microtiter plates, at 5×10^3 cells per well in aliquots of 195 μL medium, and they are allowed to attach to the plate surface by growing in drug free medium for 18 hours. Afterward, samples are added in aliquots of 5 μL in a ranging from 10 to 10^−8 μg/mL, dissolved in DMSO:EtOH:PBS (0.5:0.5:99). After 48 hours exposure, the antitumor effect are measured by the SRB methodology: cells are fixed by adding 50 μL of cold 50% (wt/vol) trichloroacetic acid (TCA) and incubating for 60 minutes at 4° C. Plates are washed with deionized water and dried. One hundred μL of SRB solution (0.4% wt/vol in 1% acetic acid) is added to each microtiter well and incubated for 10 minutes at room temperature. Unbound SRB is removed by washing with 1% acetic acid. Plates are air dried and bound stain is solubilized with Tris buffer. Optical densities are read on a automated spectrophotometric plate reader at a single wavelength of 490 nm.
The values for mean+/− SD of data from triplicate wells are calculated. Some parameters for cellular responses can be calculated: GI=growth inhibition, TGI=total growth inhibition (cytostatic effect) and LC=cell killing (cytotoxic effect).

[5] = tested on: DU-145; test: SRB colorimetric assay of cell growth and viability, DU-145; conditions: 48 hours exposure, SRB
[6] = tested on: LoVo-Dox; test: SRB colorimetric assay of cell growth and viability, LoVo-Dox; conditions: LOVO-DOX, 48 hours exposure
Outline: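 Optical density at 490 nm of solubilized SRB, from triplicate wells, yields GI, TGI and LC values. Before staining, cells are fixed for 60 minutes at 4° C in cold TCA after a 48-hour exposure.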

[7] = tested on: IGROV-ET; test: SRB colorimetric assay of cell growth and viability, IGROV-ET; conditions: 48 hours exposure, SRB
[8] = tested on: HeLa-APL; test: SRB colorimetric assay of cell growth and viability, HeLa-APL; conditions: HELA-APL, 48 hours exposure
[9] = tested on: LoVo; test: SRB colorimetric assay of cell growth and viability, LoVo; conditions: LOVO, 48 hours exposure
[10] = tested on: HT-29; test: SRB colorimetric assay of cell growth and viability, HT-29; conditions: HT-29, 48 hours exposure
[11] = tested on: HeLa; test: SRB colorimetric assay of cell growth and viability, HeLa; conditions: HELA, 48 hours exposure
[12] = tested on: IGROV-1; test: SRB colorimetric assay of cell growth and viability, IGROV-1; conditions: 48 hours exposure, SRB
[13] = tested on: PANC-1; test: SRB colorimetric assay of cell growth and viability, PANC-1; conditions: PANC-1, 48 hours exposure

C/C=C1\NC(=O)[C@H](Cc2ccccc2)NC(=O)[C@@H](C(C)C)NC(=O)[C@@H]([C@@H](C)CC)NC(=O)[C@H](NC(=O)[C@H](NC(=O)[C@H](CCCN)NC(=O)[C@@H]2CC[C@H](c3ccccc3)N2C(=O)[C@H](NC(=O)[C@@H](NC(=O)[C@@H](NC(=O)[C@H](NC(=O)CC[C@@H](C)CC)C(C)C)[C@@H](C)O)C(C)C)C(C)C)[C@@H](C)CC)[C@@H](C)OC(=O)[C@H](C(C)C)NC1=O [Compound 62, [(5R)-Ph-Pro^9, (4S)-MeHex^14]-KF]
TGI A-549 [1]: 6.43E−06 Molar | TGI K-562 [2]: 6.43E−06 Molar | TGI MEL-28 [3]: 6.43E−06 Molar | TGI LN-caP [4]: 6.43E−06 Molar | TGI DU-145 [5]: 6.43E−06 Molar | TGI LOVO-DOX [6]: 6.43E−06 Molar | TGI IGROV-ET [7]: 6.43E−06 Molar | TGI HELA-APL [8]: 6.43E−06 Molar | TGI LOVO [9]: 6.43E−06 Molar | TGI HT-29 [10]: 6.43E−06 Molar | TGI HELA [11]: 6.43E−06 Molar | TGI IGROV [12]: 6.43E−06 Molar | TGI PANC-1 [13]: 6.43E−06 Molar

C/C=C1\NC(=O)[C@H](Cc2ccccc2)NC(=O)[C@@H](C(C)C)NC(=O)[C@@H]([C@@H](C)CC)NC(=O)[C@H](NC(=O)[C@H](NC(=O)[C@H](CCCN)NC(=O)[C@H]2Cc3ccccc3CN2C(=O)[C@H](NC(=O)[C@@H](NC(=O)[C@@H](NC(=O)[C@H](NC(=O)CC[C@@H](C)CC)C(C)C)[C@@H](C)O)C(C)C)C(C)C)[C@@H](C)CC)[C@@H](C)OC(=O)[C@H](C(C)C)NC1=O [Compound 61, [D-Tic^9, (4S)-MeHex^14]-KF] ({Hexanoyl(4S-Me)}-[dV]TV[dV][dTic][Orn][d(aIle)][d(aThr)][d(aIle)][dV]F[Dhb]V; ester 8-C)
TGI A-549 [1]: 6.49E−06 Molar | GI50 ([1]; read-out: GI50 A-549): 2870 nM | CC50 ([1]; read-out: LC50 A-549): ≥ 6.49 µM | GI50 [2]: ≥ 6.49 µM | TGI K-562 [2]: 6.49E−06 Molar | CC50 ([2]; read-out: LC50 K-562): ≥ 6.49 µM | GI50 [3]: 3.79 µM | TGI MEL-28 [3]: 6.49E−06 Molar | CC50 ([3]; read-out: LC50 MEL-28): ≥ 6.49 µM | TGI LN-caP [4]: 2.40E−06 Molar | GI50 ([4]; read-out: GI50 LN-caP): 921 nM | CC50 ([4]; read-out: LC50 LN-caP): 6.26 µM | GI50 [5]: 1720 nM | LC50 (concentration causing 50% net cell kill) [5]: ≥ 6.49 µM | TGI DU-145 [5]: 4.24E−06 Molar | GI50 [6]: 1170 nM | TGI LOVO-DOX [6]: 2.71E−06 Molar | CC50 ([6]; read-out: LC50 LOVO-DOX): 6.28 µM | GI50 [7]: 1440 nM | TGI IGROV-ET [7]: 3.30E−06 Molar | CC50 ([7]; read-out: LC50 IGROV-ET): ≥ 6.49 µM | GI50 [8]: 4.93 µM | TGI HELA-APL [8]: 6.49E−06 Molar | CC50 ([8]; read-out: LC50 HELA-APL): ≥ 6.49 µM | GI50 [9]: 1200 nM | TGI LOVO [9]: 2.65E−06 Molar | CC50 ([9]; read-out: LC50 LOVO): 5.83 µM | TGI HT-29 [10]: 2.25E−06 Molar | GI50 ([10]; read-out: GI50 HT-29): 1180 nM | CC50 ([10]; read-out: LC50 HT-29): 4.26 µM | GI50 [11]: 3.48 µM | TGI HELA [11]: 6.49E−06 Molar | CC50 ([11]; read-out: LC50 HELA): ≥ 6.49 µM | GI50 [12]: 1360 nM | LC50 (concentration causing 50% net cell killing) [12]: 5.98 µM | TGI IGROV [12]: 2.86E−06 Molar | GI50 [13]: ≥ 6.49 µM | TGI PANC-1 [13]: 6.49E−06 Molar | CC50 ([13]; read-out: LC50 PANC-1): ≥ 6.49 µM

From US20070117743A1, “New antitumoral compounds” (priority 2003, published 2007)
